Data reported in the supplement of paper PMC6045584.
± gives the standard deviation of the averaged measurements.

Legend:
NILOTINIB = compound: Cc1cn(-c2cc(NC(=O)c3ccc(C)c(Nc4nccc(-c5cccnc5)n4)c3)cc(C(F)(F)F)c2)cn1 [NILOTINIB]; test: surviving fraction relative to DMSO-only wells; higher = less growth inhibition; settings: exposure time: 5 days
Procedure, shortened: (§1)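 In 384-well plates, 250–500 log-phase tumour cells per well were given 24 hours before five days of continuous exposure to inhibitors at 0.5, 1, 5, 10, 50, 100, 500 and 1000 nM. Surviving fraction is luminescence from CellTiter-Glo, normalised to the median of wells containing DMSO alone. Reading took place after 10 minutes at room temperature.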

[1] = compound: CCc1cc(Nc2nccc(-c3c(-c4ccc(OC)c(C(=O)Nc5c(F)cccc5F)c4)nc4ccccn34)n2)c(OC)cc1N1CCC(N2CCN(S(C)(=O)=O)CC2)CC1; test: as above; settings: exposure time: 5 days
Procedure, shortened: as §1

Test System	surviving fraction (NILOTINIB; 0.5 nM)	surviving fraction (NILOTINIB; 1 nM)	surviving fraction (NILOTINIB; 5 nM)	surviving fraction (NILOTINIB; 10 nM)	surviving fraction (NILOTINIB; 50 nM)	surviving fraction (NILOTINIB; 100 nM)	surviving fraction (NILOTINIB; 500 nM)	surviving fraction (NILOTINIB; 1000 nM)	surviving fraction ([1]; 0.5 nM)	surviving fraction ([1]; 1 nM)	surviving fraction ([1]; 5 nM)	surviving fraction ([1]; 10 nM)	surviving fraction ([1]; 50 nM)	surviving fraction ([1]; 100 nM)	surviving fraction ([1]; 500 nM)	surviving fraction ([1]; 1000 nM)
JIMT1 BREAST	0.946 ± 0.041	0.955 ± 0.045	0.975 ± 0.039	0.964 ± 0.07	0.931 ± 0.054	0.958 ± 0.086	0.97 ± 0.045	0.924 ± 0.054	0.977 ± 0.04	1.01 ± 0.014	1.01 ± 0.011	1.02 ± 0.017	0.992 ± 0.032	1.04 ± 0.027	1 ± 0.031	0.986 ± 0.032
RDES SOFT TISSUE	1.14 ± 0.097	1.25 ± 0.058	0.966 ± 0.14	1.14 ± 0.14	0.847 ± 0.16	0.78 ± 0.026	0.821 ± 0.2	0.944 ± 0.13	1.25 ± 0.081	1.13 ± 0.14	1.19 ± 0.15	1.2 ± 0.043	0.998 ± 0.2	1.09 ± 0.043	0.924 ± 0.1	1.25 ± 0.21
NOS1 BONE	0.958 ± 0.048	1.11 ± 0.029	1.07 ± 0.093	1.21 ± 0.048	1.02 ± 0.045	0.849 ± 0.013	0.666 ± 0.019	0.606 ± 0.03	1 ± 0.038	1.05 ± 0.051	1.16 ± 0.14	1.35 ± 0.26	1.22 ± 0.21	1.14 ± 0.12	1.12 ± 0.11	0.949 ± 0.043
HCC78 LUNG	1.01 ± 0.092	0.993 ± 0.085	0.994 ± 0.055	1.1 ± 0.12	1.05 ± 0.09	1.1 ± 0.095	0.719 ± 0.085	0.525 ± 0.03	0.893 ± 0.21	0.819 ± 0.18	0.91 ± 0.14	0.859 ± 0.05	0.899 ± 0.32	0.864 ± 0.051	0.653 ± 0.19	0.657 ± 0.14
NY BONE	1.03 ± 0.038	1.04 ± 0.018	1.08 ± 0.025	1.1 ± 0.049	1.12 ± 0.043	1.12 ± 0.03	1.01 ± 0.06	1.01 ± 0.045	0.969 ± 0.012	0.982 ± 0.027	1.023 ± 0.0066	1.09 ± 0.014	1.03 ± 0.039	1.04 ± 0.023	0.993 ± 0.025	0.977 ± 0.024
T47D BREAST	1.02 ± 0.041	1.065 ± 0.0097	1.07 ± 0.025	1.04 ± 0.045	1.07 ± 0.051	1.06 ± 0.026	1.05 ± 0.041	1.08 ± 0.038	1.06 ± 0.042	1.04 ± 0.027	1.05 ± 0.031	1.07 ± 0.016	1.06 ± 0.056	1.14 ± 0.051	1.03 ± 0.036	0.997 ± 0.014
SG28 HEADNECK	1.07 ± 0.044	1.05 ± 0.025	1.07 ± 0.062	1.07 ± 0.042	0.782 ± 0.042	0.907 ± 0.068	0.84 ± 0.013	0.903 ± 0.067	1.01 ± 0.085	1.09 ± 0.099	1.04 ± 0.099	1.07 ± 0.082	1.1 ± 0.1	1.04 ± 0.041	1.22 ± 0.07	1.21 ± 0.061
SUM159 BREAST	1.1 ± 0.039	1.1 ± 0.021	1.11 ± 0.021	1.09 ± 0.032	1.06 ± 0.023	1.077 ± 0.0068	1.055 ± 0.0095	1.06 ± 0.016	1.1 ± 0.27	1.17 ± 0.28	1.15 ± 0.24	1.14 ± 0.2	1.11 ± 0.21	1.12 ± 0.19	1.07 ± 0.14	1.08 ± 0.18
MDAMB134 BREAST	0.803 ± 0.068	1.15 ± 0.12	0.865 ± 0.013	0.808 ± 0.15	0.74 ± 0.12	0.72 ± 0.099	0.672 ± 0.034	0.716 ± 0.13	1.21 ± 0.028	1.02 ± 0.034	0.988 ± 0.11	1.05 ± 0.13	1.03 ± 0.27	0.906 ± 0.12	0.882 ± 0.16	0.996 ± 0.18
SG27 HEADNECK	1.13 ± 0.03	1.09 ± 0.087	1.02 ± 0.066	1.06 ± 0.063	1.11 ± 0.21	1.04 ± 0.056	1.17 ± 0.091	1.23 ± 0.051	1.04 ± 0.066	0.999 ± 0.11	1.06 ± 0.065	1.13 ± 0.057	1.05 ± 0.065	1.17 ± 0.19	1.2 ± 0.034	1.15 ± 0.071
93VU HEADNECK	1.01 ± 0.03	0.97 ± 0.013	1.1 ± 0.1	1.14 ± 0.058	0.964 ± 0.049	1.03 ± 0.088	0.938 ± 0.076	0.872 ± 0.057	1.03 ± 0.062	1.09 ± 0.15	1.1 ± 0.21	1.12 ± 0.063	1.11 ± 0.033	1.05 ± 0.089	0.932 ± 0.051	0.936 ± 0.094
HCC1954 BREAST	0.917 ± 0.15	0.891 ± 0.032	0.936 ± 0.059	0.969 ± 0.019	0.589 ± 0.0085	0.677 ± 0.12	0.8063 ± 0.0032	0.739 ± 0.077	0.996 ± 0.012	0.821 ± 0.02	0.904 ± 0.12	1.1 ± 0.052	0.982 ± 0.06	1 ± 0.1	0.913 ± 0.11	0.638 ± 0.068
S68 BREAST	1 ± 0.3	1.1 ± 0.14	1.34 ± 0.29	1.06 ± 0.32	0.643 ± 0.041	0.846 ± 0.29	0.449 ± 0.18	0.544 ± 0.2	0.916 ± 0.045	1.22 ± 0.11	1.29 ± 0.2	1.06 ± 0.18	1.1 ± 0.26	1.06 ± 0.27	0.688 ± 0.022	0.737 ± 0.089
PCI30 HEADNECK	0.952 ± 0.075	0.888 ± 0.045	1.04 ± 0.06	1.01 ± 0.05	0.921 ± 0.072	0.871 ± 0.056	1.08 ± 0.073	0.965 ± 0.063	0.889 ± 0.028	0.961 ± 0.15	1 ± 0.064	1.04 ± 0.045	0.947 ± 0.054	1.07 ± 0.032	0.989 ± 0.065	0.979 ± 0.065
MCF7 BREAST	0.969 ± 0.072	0.912 ± 0.05	0.948 ± 0.023	0.943 ± 0.017	0.992 ± 0.064	0.995 ± 0.073	0.942 ± 0.068	0.97 ± 0.078	0.857 ± 0.036	0.905 ± 0.05	0.8677 ± 0.0068	0.874 ± 0.059	0.876 ± 0.013	0.897 ± 0.05	0.844 ± 0.027	0.769 ± 0.027
HOSMNG BONE	0.898 ± 0.073	0.97 ± 0.062	0.956 ± 0.044	0.937 ± 0.039	1.03 ± 0.03	0.957 ± 0.064	1.07 ± 0.029	1.22 ± 0.018	0.956 ± 0.057	0.9987 ± 0.0055	0.989 ± 0.024	1.02 ± 0.086	1 ± 0.051	1.05 ± 0.087	1.05 ± 0.061	1.05 ± 0.057
